Key:
redroot pigweed [1] = assay: Test Example 4: herbicidal effect by soil treatment (Table 19, symbol N); assay type: in vivo, redroot pigweed (Amaranthus retroflexus); settings: amount of applied herbicide 320 g/ha
Outline: (§1)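 Step 1: sow seeds in sterilized diluvial soil, cover ~1.5 cm. Step 2: spray diluted emulsion onto soil surface at predetermined rate. Step 3: greenhouse, 25–30° C, three weeks. Step 4: grade effect on each plant by earlier criteria.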

windgrass [2] = assay: Test Example 5: herbicidal effect by foliage application, plastic box (Table 20, symbol L); assay type: in vivo, windgrass (Apera spica-venti); settings: evaluated three weeks after application
Outline: (§2)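 Foliar spray test: emulsion formulation diluted in water to a set application rate, sprayed onto 14-day-old plants raised in diluvial soil at 25° C to 30° C under glass. Both herbicidal effect and crop effect rated visually three weeks later.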

green foxtail [3] = assay: Test Example 4: herbicidal effect by soil treatment (Table 19, symbol G); assay type: in vivo, green foxtail (Setaria viridis); settings: amount of applied herbicide 320 g/ha
Outline: as §1

lambsquarters [4] = assay: Test Example 5: herbicidal effect by foliage application, plastic box (Table 20, symbol O); assay type: in vivo, lambsquarters (Chenopodium album); settings: evaluated three weeks after application
Outline: as §2

windgrass [5] = assay: Test Example 4: herbicidal effect by soil treatment (Table 19, symbol L); assay type: in vivo, windgrass (Apera spica-venti); settings: amount of applied herbicide 320 g/ha
Text: (§3) [Test Example 4] Herbicidal Effect Test by Soil Treatment
(§4) Sterilized diluvial soil was placed in a plastic box having a length of 21 cm, a width of 13 cm, and a depth of 7 cm. The seeds of each of southern crabgrass, green foxtail, barnyard grass, wild oat, blackgrass, Italian ryegrass, windgrass, velvetleaf, redroot pigweed, lambsquarters, chickweed, false cleavers, persian speedwell, corn, soybean, rice, wheat, beet, and rapeseed were sowed in a spot-like manner and covered with the soil having a thickness of about 1.5 cm. Subsequently, the emulsion agent of the compound of the present invention prepared according to Formulation Example 2 was diluted with water so as to achieve a predetermined herbicide amount, and the diluted emulsion agent was uniformly applied to the surface of the soil with a small-sized spray. The plastic box was placed in a greenhouse at 25° C. to 30° C. for growth of the plants. Three weeks after the herbicide application, the effect of the herbicide on each plant was evaluated according to the criteria of Test Example 1.

redroot pigweed [6] = assay: Test Example 5: herbicidal effect by foliage application, plastic box (Table 20, symbol N); assay type: in vivo, redroot pigweed (Amaranthus retroflexus); settings: evaluated three weeks after application
Outline: as §2

southern crabgrass [7] = assay: Test Example 4: herbicidal effect by soil treatment (Table 19, symbol F); assay type: in vivo, southern crabgrass (Digitaria ciliaris); settings: amount of applied herbicide 320 g/ha
Text: as §3, §4

chickweed [8] = assay: Test Example 5: herbicidal effect by foliage application, plastic box (Table 20, symbol P); assay type: in vivo, common chickweed (Stellaria media); settings: evaluated three weeks after application
Outline: as §2

barnyard grass [9] = assay: Test Example 4: herbicidal effect by soil treatment (Table 19, symbol H); assay type: in vivo, barnyard grass (Echinochloa crus-galli); settings: amount of applied herbicide 320 g/ha
Text: as §3, §4

velvetleaf [10] = assay: Test Example 4: herbicidal effect by soil treatment (Table 19, symbol M); assay type: in vivo, velvetleaf (Abutilon theophrasti); settings: amount of applied herbicide 320 g/ha
Text: as §3, §4

chickweed [11] = assay: Test Example 4: herbicidal effect by soil treatment (Table 19, symbol P); assay type: in vivo, common chickweed (Stellaria media); settings: amount of applied herbicide 320 g/ha
Text: as §3, §4

persian speedwell = assay: Test Example 5: herbicidal effect by foliage application, plastic box (Table 20, symbol R); assay type: in vivo, Persian speedwell (Veronica persica); settings: evaluated three weeks after application
Outline: as §2

barnyard grass [12] = assay: Test Example 5: herbicidal effect by foliage application, plastic box (Table 20, symbol H); assay type: in vivo, barnyard grass (Echinochloa crus-galli); settings: evaluated three weeks after application
Outline: as §2

blackgrass [13] = assay: Test Example 4: herbicidal effect by soil treatment (Table 19, symbol J); assay type: in vivo, blackgrass (Alopecurus myosuroides); settings: amount of applied herbicide 320 g/ha
Text: as §3, §4

lambsquarters [14] = assay: Test Example 4: herbicidal effect by soil treatment (Table 19, symbol O); assay type: in vivo, lambsquarters (Chenopodium album); settings: amount of applied herbicide 320 g/ha
Text: as §3, §4

rice flat sedge = assay: Test Example 3: herbicidal effect by foliage application, Wagner pot (Table 18, symbol E); assay type: in vivo, rice flat sedge (Cyperus iria)
Outline: (§5)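 Plants were sown in alluvial soil held under 0.1–0.5 cm standing water and grown 14 days in a greenhouse at 25–30 °C. An emulsifiable formulation, water-diluted to the set dose, was then sprayed onto the foliage, and effects were scored three weeks later using previously defined criteria.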

Italian ryegrass [15] = assay: Test Example 5: herbicidal effect by foliage application, plastic box (Table 20, symbol K); assay type: in vivo, Italian ryegrass (Lolium multiflorum); settings: evaluated three weeks after application
Outline: as §2

southern crabgrass [16] = assay: Test Example 5: herbicidal effect by foliage application, plastic box (Table 20, symbol F); assay type: in vivo, southern crabgrass (Digitaria ciliaris); settings: evaluated three weeks after application
Outline: as §2

barnyard grass [17] = assay: Test Example 3: herbicidal effect by foliage application, Wagner pot (Table 18, symbol H); assay type: in vivo, barnyard grass (Echinochloa crus-galli)
Outline: as §5

green foxtail [18] = assay: Test Example 5: herbicidal effect by foliage application, plastic box (Table 20, symbol G); assay type: in vivo, green foxtail (Setaria viridis); settings: evaluated three weeks after application
Outline: as §2

wild oat [19] = assay: Test Example 5: herbicidal effect by foliage application, plastic box (Table 20, symbol I); assay type: in vivo, wild oat (Avena fatua); settings: evaluated three weeks after application
Outline: as §2

Chinese sprangletop = assay: Test Example 3: herbicidal effect by foliage application, Wagner pot (Table 18, symbol D); assay type: in vivo, chinese sprangletop (Leptochloa chinensis)
Outline: as §5

wild oat [20] = assay: Test Example 4: herbicidal effect by soil treatment (Table 19, symbol I); assay type: in vivo, wild oat (Avena fatua); settings: amount of applied herbicide 320 g/ha
Text: as §3, §4

velvetleaf [21] = assay: Test Example 5: herbicidal effect by foliage application, plastic box (Table 20, symbol M); assay type: in vivo, velvetleaf (Abutilon theophrasti); settings: evaluated three weeks after application
Outline: as §2

Italian ryegrass [22] = assay: Test Example 4: herbicidal effect by soil treatment (Table 19, symbol K); assay type: in vivo, Italian ryegrass (Lolium multiflorum); settings: amount of applied herbicide 320 g/ha
Text: as §3, §4

blackgrass [23] = assay: Test Example 5: herbicidal effect by foliage application, plastic box (Table 20, symbol J); assay type: in vivo, blackgrass (Alopecurus myosuroides); settings: amount of applied herbicide 320 g/ha; foliage application after 14-day growth; evaluated three weeks after application
Outline: as §2

[24] = foliage application, AAH 320 g/ha
[25] = amount of applied herbicide 320 g/ha
[26] = amount of applied herbicide 320 g/ha, foliage application after 14-day growth

SMILES: CCCC(=O)Oc1c(C)nn(C)c(=O)c1-c1c(-c2cccc(OCc3ccccc3)c2)sc2ccc(F)cc12 [2-268]
- herbicidal effect on N: redroot pigweed (redroot pigweed [1]): 0 (Herbicidal rate of 5% or less (almost no effect))
- L: windgrass, herbicidal effect (criteria 0-5) (windgrass [2]; [24]): 1 (Herbicidal rate of 5% or more and less than 20%)
- herbicidal effect on G: green foxtail (green foxtail [3]): 0 (Herbicidal rate of 5% or less (almost no effect))
- O: lambsquarters, herbicidal effect (criteria 0-5) (lambsquarters [4]; [24]): 3 (Herbicidal rate of 40% or more and less than 70%)
- herbicidal effect on L: windgrass (windgrass [5]): 0 (Herbicidal rate of 5% or less (almost no effect))
- N: redroot pigweed, herbicidal effect (criteria 0-5) (redroot pigweed [6]; [24]): 3 (Herbicidal rate of 40% or more and less than 70%)
- herbicidal effect on F: southern crabgrass (southern crabgrass [7]): 0 (Herbicidal rate of 5% or less (almost no effect))
- P: chickweed, herbicidal effect (criteria 0-5) (chickweed [8]; [24]): 5 (Herbicidal rate of 90% or more (almost completely withered))
- herbicidal effect on H: barnyard grass (barnyard grass [9]): 0 (Herbicidal rate of 5% or less (almost no effect))
- herbicidal effect on M: velvetleaf (velvetleaf [10]): 0 (Herbicidal rate of 5% or less (almost no effect))
- herbicidal effect on P: chickweed (chickweed [11]): 0 (Herbicidal rate of 5% or less (almost no effect))
- R: persian speedwell, herbicidal effect (criteria 0-5) (persian speedwell; [24]): 4 (Herbicidal rate of 70% or more and less than 90%)
- H: barnyard grass, herbicidal effect (criteria 0-5) (barnyard grass [12]; [24]): 4 (Herbicidal rate of 70% or more and less than 90%)
- herbicidal effect on J: blackgrass (blackgrass [13]): 0 (Herbicidal rate of 5% or less (almost no effect))
- herbicidal effect on O: lambsquarters (lambsquarters [14]): 0 (Herbicidal rate of 5% or less (almost no effect))
- herbicidal effect on E: rice flat sedge (rice flat sedge; [25]): 3 (Herbicidal rate of 40% or more and less than 70%)
- K: Italian ryegrass, herbicidal effect (criteria 0-5) (Italian ryegrass [15]; [24]): 2 (Herbicidal rate of 20% or more and less than 40%)
- F: southern crabgrass, herbicidal effect (criteria 0-5) (southern crabgrass [16]; [24]): 1 (Herbicidal rate of 5% or more and less than 20%)
- herbicidal effect on H: barnyard grass (barnyard grass [17]; [25]): 4 (Herbicidal rate of 70% or more and less than 90%)
- G: green foxtail, herbicidal effect (criteria 0-5) (green foxtail [18]; [24]): 4 (Herbicidal rate of 70% or more and less than 90%)
- I: wild oat, herbicidal effect (criteria 0-5) (wild oat [19]; [24]): 0 (Herbicidal rate of 5% or less (almost no effect))
- herbicidal effect on D: Chinese sprangletop (Chinese sprangletop; [25]): 3 (Herbicidal rate of 40% or more and less than 70%)
- herbicidal effect on I: wild oat (wild oat [20]): 0 (Herbicidal rate of 5% or less (almost no effect))
- M: velvetleaf, herbicidal effect (criteria 0-5) (velvetleaf [21]; [24]): 1 (Herbicidal rate of 5% or more and less than 20%)
- herbicidal effect on K: Italian ryegrass (Italian ryegrass [22]): 3 (Herbicidal rate of 40% or more and less than 70%)

SMILES: Cc1nn(C)c(=O)c(-c2c(-c3ccc(C(F)(F)F)cc3)sc3cc(Cl)c(Cl)cc23)c1O [5-047]
- Herbicidal effect by foliage application, L: windgrass (windgrass [2]; [26]): 2 (Herbicidal rate of 20% or more and less than 40%)
- Herbicidal effect by foliage application, O: lambsquarters (lambsquarters [4]; [26]): 1 (Herbicidal rate of 5% or more and less than 20%)
- Herbicidal effect by foliage application, N: redroot pigweed (redroot pigweed [6]; [26]): 3 (Herbicidal rate of 40% or more and less than 70%)
- Herbicidal effect by foliage application, P: chickweed (chickweed [8]; [26]): 0 (Herbicidal rate of 5% or less (almost no effect))
- Herbicidal effect by foliage application, R: persian speedwell (persian speedwell; [26]): 0 (Herbicidal rate of 5% or less (almost no effect))
- Herbicidal effect by foliage application, H: barnyard grass (barnyard grass [12]; [26]): 0 (Herbicidal rate of 5% or less (almost no effect))
- herbicidal effect on rice flat sedge (E) (rice flat sedge; 320 g/ha): 0 (Herbicidal rate of 5% or less (almost no effect))
- Herbicidal effect by foliage application, K: Italian ryegrass (Italian ryegrass [15]; [26]): 0 (Herbicidal rate of 5% or less (almost no effect))
- Herbicidal effect by foliage application, F: southern crabgrass (southern crabgrass [16]; [26]): 0 (Herbicidal rate of 5% or less (almost no effect))
- herbicidal effect on barnyard grass (H) (barnyard grass [17]; 320 g/ha): 3 (Herbicidal rate of 40% or more and less than 70%)
- Herbicidal effect by foliage application, J: blackgrass (blackgrass [23]): 0 (Herbicidal rate of 5% or less (almost no effect))
- Herbicidal effect by foliage application, G: green foxtail (green foxtail [18]; [26]): 0 (Herbicidal rate of 5% or less (almost no effect))
- Herbicidal effect by foliage application, I: wild oat (wild oat [19]; [26]): 0 (Herbicidal rate of 5% or less (almost no effect))
- herbicidal effect on Chinese sprangletop (D) (Chinese sprangletop; 320 g/ha): 0 (Herbicidal rate of 5% or less (almost no effect))
- Herbicidal effect by foliage application, M: velvetleaf (velvetleaf [21]; [26]): 0 (Herbicidal rate of 5% or less (almost no effect))

From patent publication US20230085307A1, “PYRIDAZINONE COMPOUND AND HERBICIDE” (NISSAN CHEMICAL CORPORATION, priority 2019, published 2023)
